Data taken from PubChem BioAssay (NCI).
“And” between values parts separate entries of the source, which are not always exact repeats. Equal entries are not always repeated.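 1) Cells in 96-well plates. 2) Compound, 48 h, 5 concentrations. 3) Linear interpolation between surrounding doses. 4) Unreached endpoint = highest concentration. Here, GI50 denotes the concentration required for 50% inhibition of growth. TGI marks complete inhibition of growth.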 *1 amine or outer side, *2 acyl side, *3 side chain or, on linkers, in order; H or OH if unused. Where a SMILES comes first, the peptide text is derived from it. Bridges are numbered along the chain shown (N, C = ends). [ ]: non-standard residue; d: D form. ξ: configuration not given here. X4 = CCC(C)C(N[*:1])C(O)CC(=O)O[C@H](C(=O)C(C)C(=O)[*:2])C(C)C; NMeY = CN[C@@H](Cc1ccc(O)cc1)C(=O)O; X9 = O=C([C@@H]1CC(O)CN1[*:1])[*:2]; ξNMeL = CNC(CC(C)C)C(=O)O; ξT = CC(O)C(N)C(=O)O

Key:
Assay in all cases: DTP human tumour cell line panel, 48 h
[1] = tested on: A549 NSCLC
[2] = tested on: HCT-15 colon
[3] = tested on: HT29 colon
[4] = tested on: LOX IMVI melanoma
[5] = tested on: M14 melanoma
[6] = tested on: MALME-3M melanoma
[7] = tested on: MDA-MB-435
[8] = tested on: OVCAR-8 ovarian
[9] = tested on: RXF 393 renal
[10] = tested on: TK-10 renal

SMILES	GI50 [1] [µM]	TGI [1]	GI50 [2] [µM]	TGI [2] [µM]	GI50 [3] [µM]	TGI [3]	GI50 [4] [µM]	TGI [4]	GI50 [5] [µM]	TGI [5]	GI50 [6] [µM]	TGI [6]	GI50 [7] [µM]	TGI [7]	GI50 [8] [µM]	TGI [8]	GI50 [9] [µM]	TGI [9]	GI50 [10] [µM]	TGI [10]
COc1cc2c(cc1OCCCCCOc1cc(-c3ccc(F)cc3)nc(C)n1)N=C[C@@H]1CCCN1C2=O	> 41.2	> 66.3 µM	> 41.9	> 77.9	> 45.1	> 100 µM	11.1	31 µM	> 45.5	> 65.7 µM	> 48.3	> 68.7 µM	> 45.3	> 67.5 µM	> 37.3	> 54.7 µM	> 32.9	> 54.3 µM	> 49.9	> 75.3 µM
Cc1c(C(=O)/C=C/c2ccc(O)cc2)nnn1-c1ccnc2c(C(F)(F)F)cccc12	8.55	> 100 µM	15.1	> 100	3.36	30.1 µM	6.41	> 100 µM	49.6	> 100 µM	12.2	75.3 µM	10.8	> 100 µM	10	> 100 µM	16.6	67.3 µM	9.28	73.4 µM
CN(C)c1cccc2[nH]c(-c3[nH]ncc3Nc3ccnc(N)n3)nc12	0.0331	1.15 µM	0.0144	1.03	0.0286	0.638 µM	< 0.01	0.14 µM	0.0222	0.0812 µM	0.0359	0.114 µM	0.0237	0.719 µM	0.0213	1.68 µM	< 0.01	< 0.0168 µM	0.0399	1.01 µM
O=C(O)C(/C=C/c1ccco1)=N\Nc1nc(-c2ccc(Cl)cc2)cs1	16	> 50 µM	9.27	> 50	20.9	> 50 µM	6.62	> 50 µM	12.7	> 50 µM	35.8	> 50 µM	11.3	> 50 µM	6.93	> 50 µM	10.4	28.4 µM	31.6	> 50 µM
COc1ccc(NC2=C(Sc3nc(C)cc(C)n3)C(=O)N(Cc3ccccc3)C2=O)cc1Cl	> 160	> 160 µM	> 160	> 160	54.5	> 160 µM	> 160	> 160 µM	> 160	> 160 µM	> 160	> 160 µM	158	> 160 µM	99.2	> 160 µM	29	136 µM	> 160	> 160 µM
N#Cc1c(NC(=O)c2cccs2)[n+]([O-])c2ccccc2[n+]1[O-]	> 100	> 100 µM	64.1	> 100	> 100	> 100 µM	> 100	> 100 µM	> 100	> 100 µM	96.2	> 100 µM	> 100	> 100 µM	63.4	> 100 µM	> 100	> 100 µM	> 100	> 100 µM
O=[N+]([O-])c1cccc(-c2nc3sccn3c2-c2ccnc(NCCCNS(=O)(=O)c3ccc(F)cc3)n2)c1	2.73	> 100 µM	2.08	9.79	2.9	> 100 µM	2.57	10.4 µM	2.72	> 100 µM	2	6.76 µM	2.55	7.93 µM	1.74	22.2 µM	6.95	> 100 µM	4.34	> 100 µM
CC1CCC2(OC1)OC1CC3C4CC=C5CC(OC6OC(CO)C(OC7OC(C)C(OC8OC(C)C(O)C(O)C8O)C(O)C7O)C(O)C6OC6OC(C)C(O)C(O)C6O)CCC5(C)C4CCC3(C)C1C2C (stereo not drawn)	–	1.39 µM	–	2.92	–	2.2 µM	–	0.733 µM	–	2.27 µM	–	1.5 µM	–	1.18 µM	–	1.59 µM	–	2.05 µM	–	2.68 µM
O=C(CNC(=O)c1cccc2ccccc12)Nc1ccccc1Oc1cccc(O)c1	9.64	> 25 µM	3.14	> 25	21.4	> 25 µM	15	> 25 µM	1.56	> 25 µM	5.88	> 25 µM	0.755	3.07 µM	11.4	> 25 µM	4.12	15.4 µM	> 25	> 25 µM
O=c1cc/c(=N\Nc2ccccc2)c(=O)/c1=N/Nc1ccccc1	> 50	> 50 µM	> 50	> 50	> 50	> 50 µM	> 50	> 50 µM	> 50	> 50 µM	> 50	> 50 µM	> 50	> 50 µM	> 50	> 50 µM	> 50	> 50 µM	> 50	> 50 µM
CCN(CC)c1ccc(/C=N/NC(=O)c2ccc(Nc3ccnc(C(F)(F)F)c3)cc2)c(O)c1	0.439	> 100 µM	0.0666	2.55	0.339	1.68 µM	0.14	0.922 µM	0.25	1.42 µM	0.482	5.7 µM	0.454	7.79 µM	0.322	> 33 µM	0.156	0.44 µM	0.42	> 100 µM
O=C1C(NCCO)=C(N2CC2)C(=O)C(NCCO)=C1N1CC1	–	> 100 µM	–	> 72.5	–	> 81.8 µM	–	41.3 µM	–	> 100 µM	–	> 100 µM	–	> 100 µM	–	> 85.7 µM	–	> 100 µM	–	> 100 µM
Clc1nc(Cl)c2ncn(C/C=C\Cn3cnc4c(Cl)nc(Cl)nc43)c2n1	3.67	39.4 µM	1.64	3.36	1.69	3.35 µM	1.8	3.48 µM	2.15	4.19 µM	2.34	4.26 µM	1.88	3.77 µM	2.02	6.39 µM	2.18	4.35 µM	3.83	13.5 µM
N#Cc1nc(-c2cccc(Br)c2)cc(-c2ccc(Nc3nc(N4CCCCC4)nc(N4CCCCC4)n3)cc2)c1N	3.68	> 100 µM	1.72	5.53	1.22	4.09 µM	1.62	3.01 µM	2.84	7.5 µM	1.68	3.1 µM	2.35	6.64 µM	2.66	> 100 µM	1.34	2.99 µM	1.8	3.47 µM
COc1ccc(C2=NNC(c3ccc(-c4ccc(OC)cc4[N+](=O)[O-])o3)C2)cc1 (stereo not drawn)	39.5	> 100 µM	31	> 100	44.9	> 100 µM	41.9	> 100 µM	71.3	> 100 µM	0.412	69.5 µM	25.3	91.3 µM	21.2	75.5 µM	20.3	54.1 µM	14.8	46.3 µM
C=C1C(=O)O[C@H]2[C@H]1CC/C(COC(=O)NCCc1ccc(OC)cc1)=C\CC[C@@]1(C)O[C@@H]21	13.2	28.4 µM	1.74	4.01	2.15	4.71 µM	1.38	2.89 µM	1.98	4.78 µM	2.44	6.7 µM	3.53	11.8 µM	2.77	7.7 µM	1.55	3.11 µM	2.73	7.62 µM
CCC(C)C1NC(=O)C(NC(=O)C(CC(C)C)N(C)C(=O)[C@@H]2CC(O)CN2)C(C)OC(=O)[C@H](Cc2ccc(OC)cc2)N(C)C(=O)[C@@H]2CCCN2C(=O)[C@H](CC(C)C)NC(=O)C(C)C(=O)[C@H](C(C)C)OC(=O)CC1O (stereo partly drawn) (H-[X9][ξNMeL][ξT][X4]LP[NMeY](Me); ester 3-C)	–	2.02 µM and 1 µM	0.147	8.57	–	1.18 µM and 0.159 µM	–	0.0294 µM and 0.101 µM	–	0.11 µM and 0.126 µM	–	0.0989 µM and 0.139 µM	–	0.0555 µM and 0.131 µM	0.0238	0.759 µM and 1.06 µM	–	0.0965 µM and 0.0648 µM	0.0873	1.25 µM and 7.31 µM
